This passage reports LD50 results from patent publication US3940248A, “Method for inhibiting corrosion of metal” (Otsuka Kagaku Yakuhin Kabushiki Kaisha, priority 1972, dated 1976).

Broadly, the LD50 is the dose expected to kill half of the subjects tested.

The subject of one series is male Wistar rats. As to conditions: sodium nitrite, as determined in rats; cited from earlier work.
A further series in a line: in vivo. As to conditions: rat, po.

Description for in vivo: The LD50 test was conducted using male Wistar rats after 24 hours' fasting weighing 150 g, each 10 rats as a group.

Regarding `O=NO` [Sodium nitrite], the LD50 in the series on male Wistar rats is on record as 85 mg/kg. For `Cc1cc(O)c2nncn2n1`, the LD50 in the series “in vivo” is roughly 3750 mg/kg.
